Measured values taken from publication PMC8815882, “Screening the pandemic response box identified benzimidazole carbamates, Olorofim and ravuconazole as promising drug candidates for the treatment of eumycetoma” (PLoS Neglected Tropical Diseases, 2022).
Like-named read-outs stand apart in the source and are kept apart here.

Test system: M. mycetomatis genome strain MM55
Assay: CLSI M38-A2 based in vitro susceptibility screening (XTT or resazurin), growth at fixed concentration
Assay type: cell-based, Madurella mycetomatis
Details: Madurella mycetomatis; for Percent fungal survival at 100 µM: read-out: Percentage survival at 100um, 100 uM A (second replicate column)
[1] = mean of three replicates, read-out: Percentage survival at 25um, 25 uM mean
[2] = replicate A, read-out: Percentage survival at 25um, 25 um A
[3] = replicate B, read-out: Percentage survival at 25um, 25 uM B
[4] = replicate C, read-out: Percentage survival at 25um, 25 uM C
[5] = first replicate column, read-out: Percentage survival at 100um, 100 uM A
[6] = mean of three replicates, read-out: Percentage survival at 100um, 100 uM mean
[7] = second replicate column, read-out: Percentage survival at 100um, 100 uM A
[8] = third replicate column, read-out: Percentage survival at 100um, 100 uM A
[9] = replicate 1, read-out: Percentage survival at 100um, 100 uM A (first replicate column)
[10] = replicate 3, read-out: Percentage survival at 100um, 100 uM A (third replicate column)
[11] = mean of replicates, MM55, read-out: Percentage survival at 25um, 25 uM mean
[12] = replicate A, MM55, read-out: Percentage survival at 25um, 25 um A
[13] = replicate B, MM55, read-out: Percentage survival at 25um, 25 uM B
[14] = replicate C, MM55, read-out: Percentage survival at 25um, 25 uM C
[15] = mean of replicates, MM55, read-out: Percentage survival at 100um, 100 uM mean
[16] = replicate 1, MM55, read-out: Percentage survival at 100um, 100 uM A
[17] = replicate 2, MM55, read-out: Percentage survival at 100um, 100 uM A
[18] = replicate 3, MM55, read-out: Percentage survival at 100um, 100 uM A

Question: Which activity at 25 µM [1] does the source give for `OC[C@@H]1CC[C@H](n2cnc3c(O)ncnc32)O1` [MMV637306] here?
Answer: 91.8%

Question: And the activity at 25 µM [2]?
Answer: 101%

Question: And the activity at 25 µM [3]?
Answer: 91%

Question: What about the activity at 25 µM [4] of the same compound?
Answer: 83.2%

Question: What about the activity at 100 µM [5] of the same compound?
Answer: 90.3%

Question: And the activity at 100 µM [6]?
Answer: 87.3%

Question: And the activity at 100 µM [7]?
Answer: 80.5%

Question: What about the activity at 100 µM [8] of the same compound?
Answer: 91.2%

Question: For `OCCC#Cc1nc(-c2ccc(F)cc2)c(-c2ccncc2)n1CCCc1ccccc1` [MMV1580797], which activity at 25 µM [1] is on record?
Answer: 67.7%

Question: And the activity at 25 µM [2]?
Answer: 62%

Question: And the activity at 25 µM [3]?
Answer: 74.7%

Question: What about the activity at 25 µM [4] of the same compound?
Answer: 66.4%

Question: And the activity at 100 µM [5]?
Answer: 53.2%

Question: And the activity at 100 µM [6]?
Answer: 57.6%

Question: And the activity at 100 µM [7]?
Answer: 58.3%

Question: What about the activity at 100 µM [8] of the same compound?
Answer: 61.4%

Question: `Cc1onc(-c2ccccc2)c1-c1ccc(S(N)(=O)=O)cc1` [MMV002260] was tested. Which activity at 25 µM [1] did it give?
Answer: 81.4%

Question: And the activity at 25 µM [2]?
Answer: 85.1%

Question: What about the activity at 25 µM [3] of the same compound?
Answer: 77.3%

Question: What about the activity at 25 µM [4] of the same compound?
Answer: 81.8%

Question: What about the activity at 100 µM [6] of the same compound?
Answer: 99.5%

Question: And the activity at 100 µM [9]?
Answer: 101%

Question: What about the Percent fungal survival at 100 µM (replicate 2) of the same compound?
Answer: 120%

Question: And the activity at 100 µM [10]?
Answer: 76.9%

Question: With `C[Si]1(C)CCN(Cc2cc(-c3ccc(Cl)cc3)n(-c3ccc(Cl)cc3)n2)CC1` [MMV1580843] as the compound, how does the activity at 25 µM [11] read?
Answer: 67.7%

Question: And the activity at 25 µM [12]?
Answer: 56.5%

Question: And the activity at 25 µM [13]?
Answer: 86.3%

Question: What about the activity at 25 µM [14] of the same compound?
Answer: 60.2%

Question: What about the activity at 100 µM [15] of the same compound?
Answer: 57.4%

Question: What about the activity at 100 µM [16] of the same compound?
Answer: 52%

Question: What about the activity at 100 µM [17] of the same compound?
Answer: 70.7%

Question: What about the activity at 100 µM [18] of the same compound?
Answer: 49.4%

Question: Which results are given for `C/C(=N\NC(=O)C1CC1c1ccccc1)c1ccc(NC(=O)c2ccco2)cc1` (stereo not shown) [MMV1580487]?
Answer: activity at 25 µM [11]: 83.7%; activity at 25 µM [12]: 79.1%; activity at 25 µM [13]: 93.7%; activity at 25 µM [14]: 78.4%; activity at 100 µM [15]: 85.2%; activity at 100 µM [16]: 91.2%; activity at 100 µM [17]: 88%; activity at 100 µM [18]: 76.5%

Question: `CO/N=C(\C(=O)N[C@@H]1C(=O)N2C(C(=O)OCOC(=O)C(C)(C)C)=C(/C=C\c3scnc3C)CS[C@H]12)c1csc(N)n1` [MMV002560] was tested. Which activity at 25 µM (mean of replicates, read-out: Percentage survival at 25um, 25 uM mean) did it give?
Answer: 117%

Question: What about the activity at 25 µM [2] of the same compound?
Answer: 84.9%

Question: And the activity at 25 µM [3]?
Answer: 78.8%

Question: What about the activity at 25 µM [4] of the same compound?
Answer: 186%

Question: What about the activity at 100 µM (mean of replicates, read-out: Percentage survival at 100um, 100 uM mean) of the same compound?
Answer: 77.5%

Question: And the activity at 100 µM (replicate 1, read-out: Percentage survival at 100um, 100 uM A)?
Answer: 72.7%

Question: What about the activity at 100 µM (replicate 2, read-out: Percentage survival at 100um, 100 uM A) of the same compound?
Answer: 83.7%

Question: What about the activity at 100 µM (replicate 3, read-out: Percentage survival at 100um, 100 uM A) of the same compound?
Answer: 76%

Question: What does the source list for `COc1nc2ccc(Br)cc2cc1[C@@H](c1ccccc1)[C@@](O)(CCN(C)C)c1cccc2ccccc12` [MMV689758]?
Answer: activity at 25 µM [1]: 98.1%; activity at 25 µM [2]: 102%; activity at 25 µM [3]: 87.7%; activity at 25 µM [4]: 104%; activity at 100 µM [6]: 84.6%; activity at 100 µM [9]: 80.8%; Percent fungal survival at 100 µM (replicate 2): 75.9%; activity at 100 µM [10]: 97.2%

Question: Which results are given for `Cc1cccc(C)c1C(=O)Nc1nc(-c2ccccn2)cc2ccccc12` [MMV1581558]?
Answer: activity at 25 µM [1]: 77.1%; activity at 25 µM [2]: 65%; activity at 25 µM [3]: 114%; activity at 25 µM [4]: 52.4%; activity at 100 µM [6]: 86%; activity at 100 µM [9]: 76.1%; Percent fungal survival at 100 µM (replicate 2): 64.3%; activity at 100 µM [10]: 118%

Question: How did the activity at 25 µM [1] turn out when `Nc1cnn(C2OC(CO)C(O)C2O)c(=O)n1` (stereo not shown) [MMV1580495] was run?
Answer: 87.3%

Question: And the activity at 25 µM [2]?
Answer: 82%

Question: What about the activity at 25 µM [3] of the same compound?
Answer: 95.9%

Question: What about the activity at 25 µM [4] of the same compound?
Answer: 84%

Question: And the activity at 100 µM [5]?
Answer: 88.8%

Question: And the activity at 100 µM [6]?
Answer: 82%

Question: And the activity at 100 µM [7]?
Answer: 84.2%

Question: And the activity at 100 µM [8]?
Answer: 72.9%

Question: With `NCCCc1ccccc1C(=O)Nc1ncc([N+](=O)O)s1` [MMV1579786] as the compound, how does the activity at 25 µM (mean of three, M. mycetomatis MM55, read-out: Percentage survival at 25um, 25 uM mean) read?
Answer: 82.7%

Question: What about the activity at 25 µM (replicate A, M. mycetomatis MM55, read-out: Percentage survival at 25um, 25 um A) of the same compound?
Answer: 85.5%

Question: What about the activity at 25 µM (replicate B, M. mycetomatis MM55, read-out: Percentage survival at 25um, 25 uM B) of the same compound?
Answer: 82.6%

Question: And the activity at 25 µM (replicate C, M. mycetomatis MM55, read-out: Percentage survival at 25um, 25 uM C)?
Answer: 80.1%

Question: And the activity at 100 µM (mean of three, M. mycetomatis MM55, read-out: Percentage survival at 100um, 100 uM mean)?
Answer: 76.6%

Question: What about the activity at 100 µM (replicate 1, M. mycetomatis MM55, read-out: Percentage survival at 100um, 100 uM A (first replicate column)) of the same compound?
Answer: 71.4%

Question: What about the Percent fungal survival at 100 µM (replicate 2, M. mycetomatis MM55) of the same compound?
Answer: 83.2%

Question: And the activity at 100 µM (replicate 3, M. mycetomatis MM55, read-out: Percentage survival at 100um, 100 uM A (third replicate column))?
Answer: 75.1%

Question: With `N[C@H](CCC(=O)N[C@@H](Cc1c[nH]c2ccccc12)C(=O)O)C(=O)O` [MMV1581033] as the compound, how does the activity at 25 µM [11] read?
Answer: 91%

Question: What about the activity at 25 µM [12] of the same compound?
Answer: 91.2%

Question: What about the activity at 25 µM [13] of the same compound?
Answer: 94.6%

Question: What about the activity at 25 µM [14] of the same compound?
Answer: 87.2%

Question: And the activity at 100 µM [15]?
Answer: 66.8%

Question: And the activity at 100 µM [16]?
Answer: 84.1%

Question: What about the activity at 100 µM [17] of the same compound?
Answer: 28.6%

Question: And the activity at 100 µM [18]?
Answer: 87.7%
